The supplement of paper PMC10307832

What was measured:
Test in all cases: relative viability (nuclei count vs DMSO), 5 days (fraction); higher = more cells survive
[1] = compound: O=c1ncccn1[C@@H]1O[C@H](CO)[C@@H](O)[C@H]1O [Zebularine] + COc1cccc2cc(-c3nc([C@H]4CC[C@H](C(=O)O)CC4)n4ncnc(N)c34)[nH]c12 [OSI-027] (partner 0.5 µM)
Procedure, shortened: (§1)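 The day after seeding in 1536-well plates, lung cancer cell lines were treated by pin tool with a single drug, or with a fixed anchor-drug dose together with five library-drug doses (not always all listed) in √10 steps. After 5 days, a combined fix-and-stain solution (final 0.05% Triton X-100, 1% formaldehyde, 1 ug/ml Hoechst) was added. Nuclei counted on 4× images gave relative viability as treated counts over vehicle counts, reported as the median of duplicate plates.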

[2] = compound: CC(C)CCN1c2nc(Nc3cc(F)c(O)c(F)c3)ncc2N(C)C(=O)C1C [BI-D1870] + CCNC(=O)c1noc(-c2cc(C(C)C)c(O)cc2O)c1-c1ccc(CN2CCOCC2)cc1 [Luminespib] (partner 0.01 µM)
Procedure, shortened: as §1

[3] = compound: CC(C)CCN1c2nc(Nc3cc(F)c(O)c(F)c3)ncc2N(C)C(=O)C1C [BI-D1870] + CS(=O)(=O)N1CCN(Cc2cc3nc(-c4cccc5[nH]ncc45)nc(N4CCOCC4)c3s2)CC1 [Pictilisib] (partner 1 µM)
Procedure, shortened: as §1

[4] = compound: O=c1ncccn1[C@@H]1O[C@H](CO)[C@@H](O)[C@H]1O [Zebularine] + NC(=O)Nc1cc(-c2cccc(F)c2)sc1C(=O)N[C@H]1CCCNC1 [AZD7762] (partner 0.2 µM)
Procedure, shortened: as §1

Row | Cell Line | relative viability ([1]; first compound 1 µM) | relative viability ([1]; first compound 3.162 µM) | relative viability ([1]; first compound 10 µM) | relative viability ([1]; first compound 31.62 µM) | relative viability ([1]; first compound 100 µM) | relative viability ([2]; first compound 0.04 µM) | relative viability ([2]; first compound 0.1265 µM) | relative viability ([2]; first compound 0.4 µM) | relative viability ([2]; first compound 1.265 µM) | relative viability ([2]; first compound 4 µM) | relative viability ([3]; first compound 0.04 µM) | relative viability ([3]; first compound 0.1265 µM) | relative viability ([3]; first compound 0.4 µM) | relative viability ([3]; first compound 1.265 µM) | relative viability ([3]; first compound 4 µM) | relative viability ([4]; first compound 1 µM) | relative viability ([4]; first compound 3.162 µM) | relative viability ([4]; first compound 10 µM) | relative viability ([4]; first compound 31.62 µM) | relative viability ([4]; first compound 100 µM)
1 | NCI-H596 | 0.696 | 0.78 | 0.593 | 0.708 | 0.559 | 1.16 | 0.985 | 1.27 | 0.786 | 0.915 | 0.388 | 0.402 | 0.385 | 0.428 | 0.393 | 1.23 | 1.09 | 0.843 | 1.01 | 1.07
2 | NCI-H647 | 0.717 | 0.676 | 0.363 | 0.186 | 0.16 | 0.158 | 0.0954 | 0.206 | 0.31 | 0.107 | 0.497 | 0.387 | 0.444 | 0.512 | 0.34 | 0.814 | 0.445 | 0.256 | 0.259 | 0.211
3 | NCI-H650 | 0.54 | 0.524 | 0.437 | 0.356 | 0.26 | 0.867 | 0.641 | 0.732 | 0.918 | 0.481 | 0.9 | 0.745 | 0.87 | 0.811 | 0.651 | 1.03 | 1.04 | 0.908 | 0.551 | 0.317
4 | NCI-H727 | 0.52 | 0.54 | 0.522 | 0.674 | 0.446 | 0.235 | 0.354 | 0.302 | 0.332 | 0.314 | 0.425 | 0.35 | 0.354 | 0.509 | 0.366 | 0.785 | 0.703 | 0.606 | 0.646 | 0.574
